The assay relates to CEM cells HIV-1 protection, formazan growth assay. Put plainly: NCI AIDS Antiviral Assay. Particulars: for IC50: measured here: growth of uninfected CEM cells. In short, it runs like this: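 Category rules: moderately active means at least 50% protection on retest, and confirmed active means 100% protection reproducibly. The underlying data came from a formazan growth assay in HIV-1-infected CEM cells.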

Calls of active or inactive are those of the source.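 The calls were made as follows: active = compounds giving half or more protection of infected cells from virus-caused growth loss, again on retest; inactive = the rest.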

Regarding `O=C1OCC2C1C1c3ccccc3C(O)c3ccccc3C21` (stereo not drawn), the result was inactive.
Turning to `O=C(O)c1ccc2c(c1)C(=O)N(c1ccc(S(=O)(=O)c3ccc(N4C(=O)c5ccc(C(=O)O)cc5C4=O)cc3)cc1)C2=O`, the outcome was inactive.
What is called EC50 is the concentration giving half of the maximal effect. Usually IC50 stands for the concentration needed to halve the response being measured. A higher IC50 goes with a need for much substance. Regarding `CC(NC(=O)C(N)CC(=O)O)C(=O)OC12CC3CC(CC(C3)C1)C2` (stereo not drawn), the EC50 is > 200 µM and the IC50 was > 200 µM.
With `c1ccc2c3nc4ccccc4c-3scc2c1`, the EC50 was > 56.2 µM and the IC50 worked out at 6.46 µM.
For the compound `CN(C)C[C@@H]1C2C=CC(C2)[C@@H]1CO` (stereo partly drawn), the EC50 is > 490 µM and the IC50 is > 490 µM.
In the case of `O=C(O)c1c2c(nc3ccccc13)CCCC2`, the EC50 is > 398 µM and the IC50 is > 398 µM.
On to `COc1cc(-c2ccccc2)cn2c1nc1ccccc12`, for which the EC50 is > 200 µM and the IC50 was 11.5 µM.
In the same order, the values of `CCN1CCC(O)(c2ccc(O)cc2)C(C(=O)c2ccc(O)cc2)C1` (stereo not drawn) are > 16.2 µM and > 16.2 µM.
In the same order, the values of `Nc1nc(Cl)c(N)c(NCC2(CO)CCCC2)n1` are > 200 µM and 102 µM.
On to `CC(=O)OC1CCn2nnc(CO)c21` (stereo not drawn), for which the outcome was inactive.
Turning to `Nc1c(Cl)ncnc1N[C@@H]1C[C@H]1CO`, the EC50 was > 200 µM and the IC50 is > 200 µM.
Consider `N#C/C(=C\NC(=S)c1ccncc1)c1nc2ccccc2s1`, for which the EC50 was > 200 µM and the IC50 was 145 µM.
In the same order, the values of `O=C1CCCC1CC(CN1CCOCC1)Sc1nnnn1-c1ccccc1` (stereo not drawn) are > 200 µM and > 200 µM.
In the same order, the values of `Cc1cn(C2CC(O)C(CNC(=O)N(O)C3CC(n4cc(C)c(=O)[nH]c4=O)OC3CO)O2)c(=O)[nH]c1=O` (stereo not drawn) are > 200 µM and > 200 µM.
For `CCn1ccc(=O)nc1` the same measures were > 200 µM and > 200 µM.
Take `CN(/N=C/c1cccc2cccnc12)c1ccc([N+](=O)[O-])cc1`: the outcome was inactive.
For the compound `O=C(COc1ccc(OCC(=O)N2C(=O)CSC2=Nc2ccccc2)cc1)N1C(=O)CSC1=Nc1ccccc1`, the EC50 was > 200 µM and the IC50 stood at 25.7 µM.
In the same order, the values of `O=[N+]([O-])c1ccccc1C1SCc2nc3ccccc3n21` (stereo not drawn) are > 38.9 µM and 33.9 µM.
Consider `CCC(=O)C(C)C(=O)C(=O)NCCNC(=O)C(=O)C(C)C(=O)CC` (stereo not drawn), for which the result was inactive.
As to `O=C1c2ccccc2CCCCCCCCCCC12OCCCO2`, the EC50 was > 200 µM and the IC50 was > 200 µM.
On to `O=C(O)CCc1nn2c(nc1=O)sc1ccc3ccccc3c12`, for which the EC50 was > 50.1 µM and the IC50 was > 50.1 µM.
Regarding `O=c1[nH]c2ccccc2c(=O)n1/N=C/c1ccc(O)cc1`, the EC50 is > 200 µM and the IC50 was > 200 µM.
As to `CC1(c2ccccc2)CC(c2cccc([N+](=O)[O-])c2)=NO1` (stereo not drawn), the result was inactive and the IC50 came to 43.7 µM.
In the case of `C/C(=N\N=C(N)N)c1sc(-c2nc(C)c(/C(C)=N/N=C(N)N)s2)nc1C`, the EC50 was > 126 µM and the IC50 is > 126 µM.
Consider `COC(=O)C1(C)CCCC2(C)c3cc(OC)ccc3C(=O)C(Cl)C12` (stereo not drawn), for which the EC50 is > 200 µM and the IC50 was 30.2 µM.
As for `O=c1c2cc(Br)ccc2nc(-c2ccccc2)n1NCC1(O)OCC(O)C(O)C1O` (stereo not drawn), the outcome was inactive.
Regarding `CCOCC(CN(CC)CC)N(CC)CC(=O)Nc1c(C)cccc1C` (stereo not drawn), the EC50 was > 200 µM and the IC50 came out at 4.17 µM.
For `C/C(C=C(C#N)C#N)=C\c1ccccc1` the same measures were > 97.7 µM and 39.8 µM.
For `CCOC(=O)c1nc2ccc(C(F)(F)F)cc2nc1Nc1cc(OC)c(OC)c(OC)c1` the same measures were > 200 µM and > 200 µM.
For `CS(=O)(=O)OCC1CCCCCCCCCCC12SCCCS2` (stereo not drawn) the same measures were > 200 µM and > 200 µM.
Consider `NS(=O)(=O)c1c(O)c2ccccc2oc1=O`, for which the outcome was inactive.
As for `CC(C)(C)C#C[P+](c1ccccc1)(c1ccccc1)c1ccccc1`, the EC50 is > 2 µM and the IC50 was determined as 0.012 µM.
In the same order, the values of `COC(=O)CSSCc1ccccc1` are > 200 µM and 5.25 µM.
With `NCCCNCCCCN(CCCN)/[N+]([O-])=N\O`, the EC50 was > 6030 µM and the IC50 was found to be 145 µM.
For the compound `Cn1cc(NC(=O)c2cc(NC(=O)Nc3cc(C(=O)Nc4cc(C(=O)NCCC(=N)N)n(C)c4)n(C)c3)cn2C)cc1C(=O)NCCC(=N)N`, the EC50 is 15.1 µM and the IC50 turned out to be 77.6 µM.
For `C[n+]1c(-c2ccc(/C=N\Nc3ccnc(N/N=C/c4ccc(-c5cn6ccsc6[n+]5C)cc4)n3)cc2)cn2ccsc21`, the EC50 is > 41.7 µM and the IC50 came to 28.8 µM.
For the compound `COC(=O)[C@@]12OC[C@]34[C@H]([C@@H](O)[C@@H]1O)[C@@]1(C)CC(=O)C(O)=C(C)[C@@H]1C[C@H]3OC(=O)[C@H](OC(=O)/C=C(\C)C(C)C)[C@@H]24`, the EC50 was > 123 µM and the IC50 was 0.0389 µM.
In the same order, the values of `Cc1ccc(S(=O)(=O)NC(N)=NCCCC(NC(=O)OCc2ccccc2)C(=O)N[C@H]2CC[C@H]3[C@@H]4CC=C5C[C@@H](O)CC[C@]5(C)[C@H]4CC[C@]23C)cc1` (stereo partly drawn) are > 200 µM and 34.7 µM.
In the same order, the values of `Nc1ncnc2c1ncn2C1OC(CO)C(O)C(O)C1O` (stereo not drawn) are > 200 µM and > 200 µM.
In the same order, the values of `CC(C)[Si](OCC1CC(C[C@H]2CC(C[C@H]3C[C@@H](CO[Si](C(C)C)(C(C)C)C(C)C)OC(C)(C)O3)OC(C)(C)O2)OC(C)(C)O1)(C(C)C)C(C)C` (stereo partly drawn) are > 200 µM and > 200 µM.
Take `Cc1nnc(NC(=O)c2cc(=O)c3ccccc3o2)s1`: the EC50 was > 91.2 µM and the IC50 was > 91.2 µM.
Turning to `CC1(C)CC23CC(C)(C)c4cccc(c42)OCc2ccc4ccc5ccc(nc5c4n2)COc2cccc1c23`, the EC50 was > 50.1 µM and the IC50 is > 50.1 µM.
Take `CC(C)C1OC(N)=C(C#N)C1(C#N)C#N` (stereo not drawn): the EC50 was > 200 µM and the IC50 worked out at 7.41 µM.
For `CC1OC(CC(=O)O)Cc2c1c(O)c1c(O)cc(-c3cc(=O)c4c(=O)c5c(c(=O)c=4c3=O)CC(CC(=O)O)OC5C)c(O)c1c2O` (stereo not drawn), the outcome was inactive.
With `CCc1ccccc1NC(=O)C(=O)CC(=O)c1sc(Nc2ccccc2Cl)nc1C`, the EC50 was > 200 µM and the IC50 stood at 87.1 µM.
In the same order, the values of `O=C1OCOC2(CCCC2)C1c1ccccc1` (stereo not drawn) are > 200 µM and 120 µM.
For `CC(=O)NNc1nc(C)c(C(/C=C/c2ccccc2O)=N/N=C(N)N)s1` the same measures were > 89.1 µM and > 89.1 µM.
Turning to `COC(=O)[C@H](Cc1ccccc1)NC(=O)N(CCNC(=O)OC(C)(C)C)c1ccccc1`, the EC50 was > 200 µM and the IC50 amounted to 102 µM.
On to `CCCCCC1=CC(=O)C1(Cl)Cl`, for which the EC50 is > 200 µM and the 50% inhibitory concentration (IC50) was determined as 27.5 µM.
In the same order, the values of `O=C1C(O)=C(c2ccccc2)S(=O)(=O)C1c1ccccc1` (stereo not drawn) are > 200 µM and 79.4 µM.
In the same order, the values of `Cc1ccc(OCCn2cc(Nc3ccccc3)c(=O)[nH]c2=O)cc1` are > 200 µM and > 200 µM.
For `CCCCCCCCCCCCOC(=N)N(C)C` the same measures were > 200 µM and 2 µM.
In the case of `O=C1NCc2ccccc2S(=O)(=O)n2cccc21`, the EC50 is > 200 µM and the IC50 was 120 µM.
Regarding `Cc1cccc(N2C(=O)C(Cl)=C(Cl)C2=O)c1`, the result was inactive.
As to `Nc1c(N=Nc2ccc(-c3ccc(N=Nc4cc(S(=O)(=O)O)c5ccccc5c4O)cc3)cc2)cc(S(=O)(=O)O)c2ccccc12`, the EC50 was 9.12 µM and the IC50 is > 100 µM.
`CN(NC(=O)c1cccs1)C1=NCCCN1`: the EC50 is > 200 µM and the IC50 is > 200 µM.
Regarding `O=S(=O)(O)c1ccc(SSc2ccc(S(=O)(=O)O)cc2)cc1`, the EC50 is > 200 µM and the IC50 is > 200 µM.
For the compound `CN(C)C(=S)SSSC(=S)N(C)C`, the EC50 was > 20 µM and the IC50 turned out to be 0.513 µM.
In the same order, the values of `COC(=O)C(C#CCCCCC#CC(NC(=O)OCc1ccccc1)(C(=O)OC)C(F)(F)F)(NC(=O)OCc1ccccc1)C(F)(F)F` (stereo not drawn) are > 200 µM and 138 µM.
For `OC1(c2ccccc2)CC2CCC(C1)N2CCCC1(c2ccc(F)cc2)OCCO1` (stereo not drawn) the same measures were > 200 µM and 162 µM.
For `CC(C)OP(=O)(OC(C)C)c1nn(-c2ccc([N+](=O)[O-])cc2)c(=N)s1` the same measures were > 129 µM and 93.3 µM.
As to `COc1cc(/C=C(\C#N)c2ccc(Cl)cc2)ccc1OCc1ccccc1`, the EC50 is > 200 µM and the IC50 is > 200 µM.
As for `Brc1ccc(-c2nc3sc(-c4ccc5c(c4)OCO5)nn3c2Br)cc1`, the EC50 is > 200 µM and the IC50 was > 200 µM.
For the compound `Oc1c(-c2ccccc2)nc2cnccn12`, the EC50 is > 447 µM and the IC50 is > 447 µM.
Turning to `C/C(=N\NS(=O)(=O)c1ccc(C)cc1)c1cc2ccccc2n1C`, the EC50 is > 79.4 µM and the IC50 is > 79.4 µM.
With `O=C(N/N=C/c1cc(Cl)cc(Cl)c1[OH2+])c1ccncc1.O=S(=O)([O-])[O-].[Fe+2]`, the outcome was inactive.
Turning to `COc1ccc(Nc2nnc(CCCCCCCCc3nnc(Nc4ccc(OC)cc4)o3)o2)cc1`, the EC50 is > 200 µM and the IC50 was > 200 µM.
In the case of `CCN(CCCl)c1cc(C(=O)NCCCN(C)CCCNC(=O)c2cc(N(CC)CCCl)c([N+](=O)[O-])cc2[N+](=O)[O-])c([N+](=O)[O-])cc1[N+](=O)[O-]`, the EC50 was > 200 µM and the IC50 was found to be 10.7 µM.
For `COC(=O)C1=C(C)C(=O)C2(CCCCCC2C(=O)OC)C1` (stereo not drawn) the same measures were > 200 µM and > 200 µM.
For `NNC(=O)CC(=O)N(C(=O)/C=C/c1ccccc1)c1ccc(Cl)cc1` the same measures were > 200 µM and > 200 µM.
Regarding `O=C(O)C1Cc2nc[nH]c2CN1` (stereo not drawn), the result was inactive.
Consider `C=C1CC2(CCOc3ccccc32)OC1=O` (stereo not drawn), for which the EC50 was > 871 µM and the IC50 was found to be 4.37 µM.

The record behind these values is PubChem BioAssay AID179 (DTP/NCI, 2004).
